Experimental data as given in patent US20260049072A1, “HETEROCYCLIC COMPOUND FOR INDUCING DEGRADATION OF MUTANT KRAS PROTEIN” (Astellas Pharma Inc., priority 2022, published 2026).

How the values were obtained:
[1] = test system: MIA PaCa-2 cells; test: Non-anchorage-dependent cell growth inhibition (spheroid 3D culture), MIA PaCa-2; type: cell-based; conditions: Homo sapiens, MIA PaCa-2, 144 h; KRAS G12C mutant-positive, 3D spheroid, six days, CellTiter-Glo 2.0; read-out: MIA PaCa-2 IC50
Description: (§1) Test Example 3: Evaluation of Non-Anchorage-Dependent Cell Growth Inhibitory Activity on Human KRAS G12V Mutant-Positive Pancreatic Cancer Line PA-TU-8902, Human KRAS G12D Mutant-Positive Pancreatic Cancer Line AsPC-1 or Human KRAS G12C Mutant-Positive Pancreatic Cancer Line MIA PaCa-2
(§2) The non-anchorage-dependent cell growth inhibitory activities of subject compounds were evaluated by spheroid 3D cell culture.
(§3) PA-TU-8902 cells, AsPC-1 cells or MIA PaCa-2 cells (RIKEN BRC, RCB2094) were seeded at 36 µL/well on a low-cell-adhesive round bottom 384-well plate (Prime Surface: from Sumitomo Bakelite) to give 5×10^2 cells per well. The PA-TU-8902 cells were under the same conditions as in Test Example 1-1, and the AsPC-1 cells were under the same conditions as in Test Example 1-2. For the MIA PaCa-2 cells, RPMI-1640 medium containing 10% fetal bovine serum was used in the presence of 5% CO2 at 37° C.
(§4) The next day, the subject compounds (6-9 points having final concentrations in the range of 3 μM to 0.3 nM) and DMSO, which was the solvent for the subject compounds, as a negative control were diluted 100-fold with a fresh medium and were each added at 4 μL per well. After culturing in the presence of 5% CO2 at 37° C. for six days, CellTiter-Glo 2.0 (from Promega) was added at 20 μL per well. After stirring with a plate mixer (from FINEPCR) at normal temperature for an hour, the luminescent signals were measured with ARVO X3 (from PerkinElmer).
(§5) With the signaling value in treatment with DMSO taken as 0% inhibition and with the signaling value in the medium alone without cells taken as 100% inhibition, the 50% inhibition values (IC50) were calculated by Sigmoid-Emax model nonlinear regression analysis.

[2] = test system: AsPC-1 cells; test: Non-anchorage-dependent cell growth inhibition (spheroid 3D culture), AsPC-1; type: cell-based; conditions: Homo sapiens, ASPC1, 144 h; KRAS G12D mutant-positive, 3D spheroid, six days, CellTiter-Glo 2.0; read-out: AsPC-1 IC50
Description: as §1, §2, §3, §4, §5

[3] = test system: PA-TU-8902 cells; test: Non-anchorage-dependent cell growth inhibition (spheroid 3D culture), PA-TU-8902; type: cell-based, human; conditions: Homo sapiens, PaTu 8902, 144 h; KRAS G12V mutant-positive, 3D spheroid, six days, CellTiter-Glo 2.0; read-out: PA-TU-8902 IC50
Description: as §1, §2, §3, §4, §5

[4] = target: T1, RAS G12V (Homo sapiens, UniProt P01116, G12V); test: RAS G12V degradation activity, Cell ELISA, PA-TU-8902; type: cell-based; conditions: PA-TU-8902 cells, 24 hours, 100% = Example compound 17 at 1 μM; read-out: DC50 (RAS G12V 50% degradation value)
T1 construct: host or cells: PA-TU-8902 human pancreatic cancer cells
T1 sequence (P01116 1-188 isoform P01116-2 G12V): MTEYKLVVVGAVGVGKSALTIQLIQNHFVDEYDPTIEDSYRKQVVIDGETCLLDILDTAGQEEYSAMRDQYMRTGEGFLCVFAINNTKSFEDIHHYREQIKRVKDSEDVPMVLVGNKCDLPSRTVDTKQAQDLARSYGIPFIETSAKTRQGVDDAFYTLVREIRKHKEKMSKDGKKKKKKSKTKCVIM
Description: Test Example 1-1: Evaluation of RAS G12V Degradation Activity on Human KRAS G12V Mutant-Positive Pancreatic Cancer Line PA-TU-8902
The RAS G12V degradation activities of subject compounds were evaluated by measuring the expression levels of RAS G12V by a Cell ELISA method.
PA-TU-8902 cells (DSMZ, ACC 179) were seeded at 36 μL per well on a 384-well plate (from Greiner bio-one) to give 1.5×10^4 cells per well. As for the cell culture conditions, DMEM medium (from Sigma-Aldrich) containing 10% fetal bovine serum (from Cytiva) was used in the presence of 5% CO2 at 37° C.
The next day, the subject compounds (10 points having final concentrations in the range of 3 μM to 0.1 nM), Example compound 17 of a final concentration of 1 μM as a positive control and dimethyl sulfoxide (DMSO), which was the solvent for the subject compounds, as a negative control were diluted 100-fold with a fresh medium and were each added at 4 μL per well, followed by culturing for 24 hours.
The next day, the culture supernatant was removed, and a 4% paraformaldehyde phosphate buffer solution (from FUJIFILM Wako) was added at 20 μL per well. The plate was allowed to stand for 30 minutes at room temperature to thus immobilize the cells. Then, the supernatant was removed, and 0.1% Triton X-100 (from Amersham Biosciences)-containing Phosphate buffered saline (PBS) was added at 20 μL per well. After allowing the plate to stand at room temperature for 10 minutes, the supernatant was removed, and the wells were washed twice in total by adding PBS at 25 μL per well and removing the supernatant. The washing operations below were performed in the same manner. Next, the supernatant was removed, and 0.5% sodium dodecyl sulfate (SDS; from ThermoFisher Scientific)-containing PBS was added at 20 μL per well. After allowing the plate to stand at room temperature for 10 minutes, the plate was centrifuged to remove the supernatant. After washing with PBS, the supernatant was removed by centrifugation, and a blocking solution (PVDF Blocking Reagent for Can Get Signal; from TOYOBO) was added at 20 μL per well. After allowing the plate to stand for 30 minutes at room temperature, the supernatant was removed by centrifugation, and a solution obtained by diluting an anti-Ras (G12V Mutant Specific) antibody (Ras (G12V Mutant Specific) (D2H12) Rabbit mAb; from Cell Signaling Technology; 500-fold dilution) and an anti-3-actin antibody (Anti-beta Actin antibody; from Abcam; 5,000-fold dilution) with Can Get Signal Solution 2 (from TOYOBO) was added at 15 μL per well as primary antibodies. The plate was allowed to stand overnight at 4° C.
The next day, the supernatant was removed by centrifugation, and the plate was washed with PBS. The supernatant was removed by centrifugation, and a solution obtained by diluting an anti-rabbit IgG antibody (IRDye 800CW Goat anti-Rabbit IgG; from LI-COR Biosciences) and an anti-mouse IgG antibody (IRDye 680RD Donkey anti-Mouse IgG; from LI-COR Biosciences) 1,000-fold with Can Get Signal Solution 2 was added at 15 μL per well as secondary antibodies. After allowing the plate to stand at room temperature for an hour, the supernatant was removed by centrifugation, and the plate was washed with PBS. After removing the supernatant, the plate was dried as it was with air at room temperature for two hours or more, and the 700-nm and 800-nm fluorescent signals were measured with Aerius (from LI-COR Biosciences).
With the RAS G12V signaling value at the time of addition of DMSO corrected with the signaling value of 3-actin taken as 0% and with the RAS G12V signaling value at the time of addition of Example compound 17 of a final concentration of 1 μM taken as 100%, the RAS G12V degradation rates were calculated. The 50% degradation values (DC50) were calculated by Sigmoid-Emax model nonlinear regression analysis.

SMILES | IC50 [1] [nM] | IC50 [2] [nM] | IC50 [3] [nM] | DC50 [4] [nM]
CO[C@@H](C)COc1nc(N(C)[C@H]2CCN(C(=O)NCCN(C)C)C2)c2cc(C3CC3)c(-c3c(C)c(F)cc4[nH]ncc34)c(OCc3ccc(-c4cn([C@H](C(=O)N5C[C@H](O)C[C@H]5C(=O)N[C@@H](CO)c5ccc(-c6scnc6C)cc5)C(C)C)nn4)cc3)c2n1 (atropisomer, axis not shown) [Example 19] | 27 | 16 | 58 | 26
CO[C@@H](C)COc1cc(OC2CN(C(=O)N3CC(CN(C)C)C3)C2)c2cc(C3CC3)c(-c3c(C)c(F)cc4[nH]ncc34)c(OCc3ccc(-c4cn([C@H](C(=O)N5C[C@H](O)C[C@H]5C(=O)N[C@@H](CO)c5ccc(-c6ocnc6C)cc5)C(C)C)nn4)cc3)c2n1 (atropisomer, axis not shown; (M)) [Example 6, (4R)-1-[(2S)-2-(4-{4-[({(7M)-6-cyclopropyl-4-[(1-{3-[(dimethylamino)methyl]azetidine-1-carbonyl}azetidin-3-yl)oxy]-7-(6-fluoro-5-methyl-1H-indazol-4-yl)-2-[(2S)-2-methoxypropoxy]quinolin-8-yl}oxy)methyl]phenyl}-1H-1,2,3-triazol-1-yl)-3-methylbutanoyl]-4-hydroxy-N-{(1R)-2-hydroxy-1-[4-(4-methyl-1,3-oxazol-5-yl)phenyl]ethyl}-L-prolinamide] | 7 | 14 | 32 | 22
CO[C@@H](C)COc1nc(OC2CN(C(=O)NCCN(C)C)C2)c2cc(C3CC3)c(-c3c(C)c(F)cc4[nH]ncc34)c(OCc3ccc(-c4cn([C@H](C(=O)N5C[C@H](O)C[C@H]5C(=O)N[C@@H](CO)c5ccc(-c6scnc6C)cc5)C(C)C)nn4)cc3)c2n1 (atropisomer, axis not shown) [Example 17] | 10 | 16 | 46 | 41
CO[C@@H](C)COc1cc(OC2CN(C(=O)N3CC(CN(C)C)C3)C2)c2cc(C3CC3)c(-c3c(C)c(F)cc4[nH]ncc34)c(OCc3ccc(-c4cn([C@H](C(=O)N5C[C@H](O)C[C@H]5C(=O)N[C@@H](CO)c5ccc(-c6scnc6C)cc5)C(C)C)nn4)cc3)c2n1 (atropisomer, axis not shown; (M)) [Example 14, (4R)-1-[(2S)-2-(4-{4-[({(7M)-6-cyclopropyl-4-[(1-{3-[(dimethylamino)methyl]azetidine-1-carbonyl}azetidin-3-yl)oxy]-7-(6-fluoro-5-methyl-1H-indazol-4-yl)-2-[(2S)-2-methoxypropoxy]quinolin-8-yl}oxy)methyl]phenyl}-1H-1,2,3-triazol-1-yl)-3-methylbutanoyl]-4-hydroxy-N-{(1R)-2-hydroxy-1-[4-(4-methyl-1,3-thiazol-5-yl)phenyl]ethyl}-L-prolinamide] | 10 | 19 | 47 | 10
CO[C@@H](C)COc1nc(NC2CN(C(=O)N3CC(CN(C)C)C3)C2)c2cc(C3CC3)c(-c3c(C)c(F)cc4[nH]ncc34)c(OCc3ccc(-c4cn([C@H](C(=O)N5C[C@H](O)C[C@H]5C(=O)N[C@@H](CO)c5ccc(-c6scnc6C)cc5)C(C)C)nn4)cc3)c2n1 (atropisomer, axis not shown) [Example 25] | 16 | 14 | 41 | 14
CO[C@@H](C)COc1nc(N2CC(C#N)C2)c2cc(C3CC3)c(-c3c(C)c(F)cc4[nH]ncc34)c(OCc3ccc(-c4cn([C@H](C(=O)N5C[C@H](O)C[C@H]5C(=O)N[C@@H](CO)c5ccc(-c6scnc6C)cc5)C(C)C)nn4)cc3)c2n1 (atropisomer, axis not shown) [Example 20] | 14 | 68 | 63 | 48
CO[C@@H](C)COc1nc(NC2CN(C(=O)O[C@H]3C[C@@H](N(C)C)C3)C2)c2cc(C3CC3)c(-c3c(C)c(F)cc4[nH]ncc34)c(OCc3ccc(-c4cn([C@H](C(=O)N5C[C@H](O)C[C@H]5C(=O)N[C@@H](CO)c5ccc(-c6ocnc6C)cc5)C(C)C)nn4)cc3)c2n1 (atropisomer, axis not shown; (M)) [Example 1, (1s,3R)-3-(dimethylamino)cyclobutyl 3-({(7M)-6-cyclopropyl-7-(6-fluoro-5-methyl-1H-indazol-4-yl)-8-{[4-(1-{(2S)-1-[(2S,4R)-4-hydroxy-2-({(1R)-2-hydroxy-1-[4-(4-methyl-1,3-oxazol-5-yl)phenyl]ethyl}carbamoyl)pyrrolidin-1-yl]-3-methyl-1-oxobutan-2-yl}-1H-1,2,3-triazol-4-yl)phenyl]methoxy}-2-[(2S)-2-methoxypropoxy]quinazolin-4-yl}amino)azetidine-1-carboxylate] | 11 | 28 | 57 | 31
CO[C@@H](C)COc1nc(NC2CN(C(=O)O[C@H]3C[C@@H](N(C)C)C3)C2)c2cc(C3CC3)c(-c3c(C)c(F)cc4[nH]ncc34)c(OCc3ccc(-c4cn([C@H](C(=O)N5C[C@H](O)C[C@H]5C(=O)N[C@@H](CO)c5ccc(-c6scnc6C)cc5)C(C)C)nn4)cc3)c2n1 (atropisomer, axis not shown; (M)) [Example 11, (1s,3R)-3-(dimethylamino)cyclobutyl 3-({(7M)-6-cyclopropyl-7-(6-fluoro-5-methyl-1H-indazol-4-yl)-8-{[4-(1-{(2S)-1-[(2S,4R)-4-hydroxy-2-({(1R)-2-hydroxy-1-[4-(4-methyl-1,3-thiazol-5-yl)phenyl]ethyl}carbamoyl)pyrrolidin-1-yl]-3-methyl-1-oxobutan-2-yl}-1H-1,2,3-triazol-4-yl)phenyl]methoxy}-2-[(2S)-2-methoxypropoxy]quinazolin-4-yl}amino)azetidine-1-carboxylate] | 13 | 11 | 45 | 13
